Read-outs that look alike come from different tables or passages of the source.
Key:
[1] = test system: contractions caused by norepinephrine on the deferent duct; assay: contractions caused by norepinephrine on the deferent duct (Barnett et al)
[2] = test system: isolated intestines of Guinea pigs; assay: spasmolytic activity in vitro on isolated intestines of Guinea pigs
[3] = test system: depolarized aorta of rats; assay: contraction-promoting effect of bivalent calcium ions on the depolarized aorta of rats (Godfraind and Kaba 1972)
isolated rat aorta = assay: contractions of isolated rat aorta (Godfraind and Kaba 1969)
[4] = test system: isolated intestines of rats; assay: spasmolytic activity in vitro on isolated intestines of rats
mice = conditions: for Slope (fiducial limits): LD50, mice; for LD50, fiducial limits / LD50, fiducial limits (micromol/kg equivalent): mice; for LD50, fiducial limits (micromol/kg equivalent): in brackets
in vivo = conditions: mouse, ip
rats = conditions: for LD50, fiducial limits / LD50, fiducial limits (micromol/kg equivalent): rats; for Slope (fiducial limits): LD50, rats; for LD50, fiducial limits (micromol/kg equivalent): in brackets

CC(C)Sc1ccc([C@@H](O)[C@@H](C)N2CCN(C(=O)C=Cc3ccccc3)CC2)cc1 (relative stereo) [1-(4-isopropylthiophenyl)-2-(4-cinnamoyl-piperazine-1-yl)-1-propanol]
inhibition of contractions caused by norepinephrine on the deferent duct [1]: inhibit the contractions caused by norepinephrine | spasmolytic activity [2]: considerable spasmolytic activity | inhibition of the contraction-promoting effect of bivalent calcium ions on the depolarized aorta [3]: has been inhibited | inhibition of contractions of isolated rat aorta (isolated rat aorta): inhibit the contractions of isolated rat aorta | spasmolytic activity [4]: considerable spasmolytic activity

CC(C)Sc1ccc([C@@H](O)[C@H](C)N2CCN(C(=O)C=Cc3ccccc3)CC2)cc1 (relative stereo) [1-(4-isopropylthiophenyl)-2-(4-cinnamoyl-piperazine-1-yl)-1-propanol]
inhibition of contractions caused by norepinephrine on the deferent duct [1]: inhibit the contractions caused by norepinephrine | spasmolytic activity [2]: considerable spasmolytic activity | inhibition of the contraction-promoting effect of bivalent calcium ions on the depolarized aorta [3]: has been inhibited | Slope (fiducial limits) (mice; intraperitoneally): 1.36 (1.14-1.47) | Slope (fiducial limits) (mice; orally): 1.25 (1.10-1.42) | LD50, fiducial limits (mice; intraperitoneally (TABLE 2)): 782-1082 mg/kg b.w. | LD50, fiducial limits (micromol/kg equivalent) (mice; intraperitoneally (TABLE 2)): 1842 to 2548 µmol/kg | LD50, fiducial limits (mice; orally (TABLE 2)): 3166-4208 mg/kg b.w. | LD50, fiducial limits (micromol/kg equivalent) (mice; orally (TABLE 2)): 6867 to 9127 µmol/kg | inhibition of contractions of isolated rat aorta (isolated rat aorta): inhibit the contractions of isolated rat aorta | spasmolytic activity [4]: considerable spasmolytic activity

CC(C)Sc1ccc([C@@H](O)[C@H](C)N2CCN(C(=O)C=Cc3ccccc3)CC2)cc1 (relative stereo) [Compound 1]
LD50 (in vivo): 920 mg/kg

CC(C)Sc1ccc([C@@H](O)[C@@H](C)N2CCN(C(=O)C=Cc3ccccc3)CC2)cc1 (relative stereo) [Compound 2]
LD50 (in vivo): > 4000 mg/kg

COc1cc(C=CC(=O)N2CCN(C(C)C(O)c3ccc(SC(C)C)cc3)CC2)cc(OC)c1OC (centres unmarked) [Compound 3]
LD50 (in vivo): > 400 mg/kg

CC(C)Sc1ccc(C(O)C(C)N2CCN(CC=Cc3ccccc3)CC2)cc1 (centres unmarked) [Compound 4]
LD50 (in vivo): 300 mg/kg

COc1cc(C=CCN2CCN(C(C)C(O)c3ccc(SC(C)C)cc3)CC2)cc(OC)c1OC (centres unmarked) [Compound 5]
LD50 (in vivo): 75 mg/kg

CC(C)Sc1ccc(C(O)C(C)Nc2ccccc2)cc1 (centres unmarked) [Compound 6]
LD50 (in vivo): 400 mg/kg

CC(C)Sc1ccc(C(O)C(C)Nc2ccccc2C2CCCCC2)cc1 (centres unmarked) [Compound 7]
LD50 (in vivo): > 400 mg/kg

CC(C)Sc1ccc(C(O)C(C)Nc2cccc(C3CCCCC3)c2)cc1 (centres unmarked) [Compound 8]
LD50 (in vivo): 500 mg/kg

CC(C)Sc1ccc(C(O)C(C)Nc2ccc(C3CCCCC3)cc2)cc1 (centres unmarked) [Compound 9]
LD50 (in vivo): > 400 mg/kg

CC(C)Sc1ccc(C(O)C(C)NC2CCCCC2c2ccccc2)cc1 (centres unmarked) [Compound 11]
LD50 (in vivo): > 400 mg/kg

CC(C)Sc1ccc(C(O)C(C)NC2CCC(c3ccccc3)CC2)cc1 (centres unmarked) [Compound 13]
LD50 (in vivo): 150 mg/kg

Fc1ccc(C(c2ccc(F)cc2)N2CCN(C/C=C/c3ccccc3)CC2)cc1 [Flunarizine]
LD50, fiducial limits (rats; intraperitoneally (TABLE 2)): 332-543 mg/kg b.w. | LD50, fiducial limits (rats; orally (TABLE 2)): 1714-2773 mg/kg b.w. | LD50, fiducial limits (mice; intraperitoneally (TABLE 2)): 325-386 mg/kg b.w. | LD50, fiducial limits (mice; orally (TABLE 2)): 498-687 mg/kg b.w.

CCCCCCCCNC(C)C(O)c1ccc(SC(C)C)cc1 (centres unmarked) [Suloctidil]
Slope (fiducial limits) (rats; intraperitoneally): 1.86 (1.42-2.44) | Slope (fiducial limits) (rats; orally): 1.18 (1.13-1.22) | LD50, fiducial limits (rats; intraperitoneally (TABLE 2)): 32-69 mg/kg b.w. | LD50, fiducial limits (micromol/kg equivalent) (rats; intraperitoneally (TABLE 2)): 94.8 to 204.4 µmol/kg | LD50, fiducial limits (rats; orally (TABLE 2)): 1603-1976 mg/kg b.w. | LD50, fiducial limits (micromol/kg equivalent) (rats; orally (TABLE 2)): 4749 to 5854 µmol/kg | Slope (fiducial limits) (mice; intraperitoneally): 1.55 (1.33-1.82) | Slope (fiducial limits) (mice; orally): 1.24 (1.18-1.30) | LD50, fiducial limits (mice; intraperitoneally (TABLE 2)): 26.8-39.4 mg/kg b.w. | LD50, fiducial limits (micromol/kg equivalent) (mice; intraperitoneally (TABLE 2)): 70.4 to 116.7 µmol/kg | LD50, fiducial limits (mice; orally (TABLE 2)): 2016-2511 mg/kg b.w. | LD50, fiducial limits (micromol/kg equivalent) (mice; orally (TABLE 2)): 5972 to 7439 µmol/kg | LD50 (in vivo): 32.5 mg/kg
